Experimental data: publication PMC3481598, “Hierarchical virtual screening for the discovery of new molecular scaffolds in antibacterial hit identification” (Journal of the Royal Society Interface, 2012)
Read-outs that look alike come from different tables or passages of the source.

Assays:
[1] = molecular target: T1, type II dehydroquinase from Streptomyces coelicolor (Streptomyces coelicolor, UniProt P15474); settings: cited from earlier work
H. pylori DHQase = molecular target: H. pylori DHQase; design: method as in PMID 16480265; settings: HTS hit; read-out: Ki against H. pylori DHQase; cited from earlier work
[2] = molecular target: T2, type II dehydroquinase from Mycobacterium tuberculosis (Mycobacterium tuberculosis, UniProt P9WPX7); settings: search template RP4, known optimized inhibitor; reference not given, probably ref 33; read-out: Ki (Mtb; μM); cited from earlier work
[3] = molecular target: T1, type II dehydroquinase from Streptomyces coelicolor; test: S. coelicolor DHQase enzyme inhibition in vitro; assay type: biochemical
Description: (§1) The next step was to purchase the compounds highlighted by these protocols to test them in vitro against M. tuberculosis DHQase and S. coelicolor DHQase. With the modest budget assigned to this proof of concept (£5000), we could purchase 148 compounds (full details on this process can be found in electronic supplementary material, Materials and methods). Tables 1 and 2 show the performance of each virtual screening protocol against each target (all IC50 measurements are included in the electronic supplementary material). […]. […].
(§2) In order to assess the overall hit rate and potency of these inhibitors, we calculated their inhibition constant (Ki) as explained in electronic supplementary material, Materials and methods (see table 3 for a summary). This is necessary to have a more accurate comparison with hit rates in the literature and with the potency of previously known inhibitors. […]. a total of 40 inhibitors) being noticeably higher than that for M. tuberculosis DHQase (23.6%; 35 inhibitors). […]. This difference might be due to the fact that our protocols are primarily exploiting crystal structures for S. coelicolor DHQase. […].

[4] = molecular target: T2, type II dehydroquinase from Mycobacterium tuberculosis; test: M. tuberculosis DHQase enzyme inhibition in vitro; assay type: biochemical; settings: Ki calculated from measured IC50, read-out: Ki (Mtb; μM)
Description: as §1, §2

T1 sequence (P15474 whole entry): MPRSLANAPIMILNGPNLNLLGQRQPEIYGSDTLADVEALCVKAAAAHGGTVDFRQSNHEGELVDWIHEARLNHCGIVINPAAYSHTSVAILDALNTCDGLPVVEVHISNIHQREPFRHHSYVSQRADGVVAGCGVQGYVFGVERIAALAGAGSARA
T2 sequence (P9WPX7 whole entry): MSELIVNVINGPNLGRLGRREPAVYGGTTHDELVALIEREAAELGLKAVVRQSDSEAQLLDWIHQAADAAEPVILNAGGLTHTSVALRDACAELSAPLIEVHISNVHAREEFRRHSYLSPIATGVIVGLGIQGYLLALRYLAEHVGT

SMILES | Ki [3] [µM] | Ki [4] [µM] | further results
O=C(O)[C@]1(O)C[C@H](CCCOc2ccccc2)[C@@H](O)[C@H](O)C1 [CA2] | – | – | Ki ([1]; read-out: measured Ki (2BT4 ligand)): 33 µM
O=c1c2ccccc2oc2ccc(S(=O)(=O)N=c3[nH]nn[nH]3)cc12 [GAJ] | – | – | Ki (H. pylori DHQase): 20 µM
O=C(O)[C@]1(O)C=C(c2cccc(Sc3ccccc3)c2)[C@@H](O)[C@H](O)C1 [RP4] | – | – | Ki [2]: 0.38 µM; Ki ([1]; read-out: Ki (Sc; μM), search template RP4, known optimized inhibitor): 0.07 µM
O=C(O)[C@H](Cc1ccccc1)N1C(=O)/C(=C/c2cccc3ccccc23)SC1=S [ZINC00978022] | 4 | – | –
CC(C)N(C(=O)COC(=O)c1ccc(N)c([N+](=O)[O-])c1)C(C)C [ZINC05657290] | 201 | 192 | –
CCOC(=O)C1=C(CSc2nc3ccccc3[nH]2)NC(=O)N[C@H]1C [ZINC06024496] | 174 | 159 | –
CC[C@H](C)NC(=O)c1ccccc1NC(=O)Cc1ccccc1 [ZINC10025084] | 148 | 167 | –
CC[C@H](C)NC(=O)c1ccccc1NC(=O)Cc1c(F)cccc1Cl [ZINC15608616] | 149 | 150 | –
COc1ccc(CC(=O)Nc2cc(C(F)(F)F)ccc2N(C)C)cc1F [ZINC18086350] | – | 166 | inhibition at 224 µM ([3]; read-out: inhibition of S. coelicolor DHQase): 45%
O=C(Cn1nc2ccccn2c1=O)N(Cc1cccs1)Cc1cccs1 [ZINC24469052] | 21 | – | –
